Data taken from PubChem BioAssay (NCI).
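Cultured in 96-well plates, cells were exposed to test compound for 48 hours across five concentrations. The concentration for 50% growth inhibition is given as GI50. The concentration for full growth arrest is given as TGI.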

Tests used:
Experiment in all cases: NCI anticancer screen, dose series, 48 h
CCRF-CEM leukemia = test system: CCRF-CEM leukemia
SW-620 colon = test system: SW-620 colon
UACC-62 melanoma = test system: UACC-62 melanoma
MCF7 breast = test system: MCF7 breast
SF-268 CNS = test system: SF-268 CNS
T-47D breast = test system: T-47D breast
IGROV1 ovarian = test system: IGROV1 ovarian
ACHN renal = test system: ACHN renal
SNB-75 CNS = test system: SNB-75 CNS
NCI/ADR-RES ovarian = test system: NCI/ADR-RES ovarian
HCT-15 colon = test system: HCT-15 colon
U251 CNS = test system: U251 CNS
UACC-257 melanoma = test system: UACC-257 melanoma
UO-31 renal = test system: UO-31 renal
HT29 colon = test system: HT29 colon
TK-10 renal = test system: TK-10 renal
SF-295 CNS = test system: SF-295 CNS
CAKI-1 renal = test system: CAKI-1 renal
NCI-H226 lung = test system: NCI-H226 lung
NCI-H522 lung = test system: NCI-H522 lung
HS 578T breast = test system: HS 578T breast
COLO 205 colon = test system: COLO 205 colon
SR leukemia = test system: SR leukemia
SK-MEL-2 melanoma = test system: SK-MEL-2 melanoma
MOLT-4 leukemia = test system: MOLT-4 leukemia
NCI-H23 lung = test system: NCI-H23 lung
MDA-MB-435 = test system: MDA-MB-435
786-0 renal = test system: 786-0 renal
BT-549 breast = test system: BT-549 breast
SNB-19 CNS = test system: SNB-19 CNS
PC-3 prostate = test system: PC-3 prostate
EKVX NSCLC = test system: EKVX NSCLC
KM12 colon = test system: KM12 colon
HCC-2998 colon = test system: HCC-2998 colon
RPMI-8226 leukemia = test system: RPMI-8226 leukemia
A549 NSCLC = test system: A549 NSCLC
RXF 393 renal = test system: RXF 393 renal
A498 renal = test system: A498 renal
SN12C renal = test system: SN12C renal
SK-MEL-28 melanoma = test system: SK-MEL-28 melanoma
M14 melanoma = test system: M14 melanoma
MDA-MB-231 breast = test system: MDA-MB-231 breast
HOP-62 NSCLC = test system: HOP-62 NSCLC
SF-539 CNS = test system: SF-539 CNS
OVCAR-8 ovarian = test system: OVCAR-8 ovarian
SK-OV-3 ovarian = test system: SK-OV-3 ovarian
OVCAR-5 ovarian = test system: OVCAR-5 ovarian
HOP-92 NSCLC = test system: HOP-92 NSCLC
OVCAR-3 ovarian = test system: OVCAR-3 ovarian
DU-145 prostate = test system: DU-145 prostate
K-562 leukemia = test system: K-562 leukemia
HCT-116 colon = test system: HCT-116 colon
SK-MEL-5 melanoma = test system: SK-MEL-5 melanoma
OVCAR-4 ovarian = test system: OVCAR-4 ovarian
MALME-3M melanoma = test system: MALME-3M melanoma
NCI-H460 lung = test system: NCI-H460 lung
LOX IMVI melanoma = test system: LOX IMVI melanoma
HL-60(TB) leukemia = test system: HL-60(TB) leukemia

## CC(C)=C1C(=O)C[C@]2(C)C/C=C(\C)CC/C=C(\C)CC[C@@H]12
CCRF-CEM leukemia
  TGI: 19.5 µM
SW-620 colon
  TGI: 17.3 µM
UACC-62 melanoma
  TGI: 15.3 µM
MCF7 breast
  TGI: 30.4 µM
SF-268 CNS
  TGI: 18 µM
T-47D breast
  TGI: > 50 µM
IGROV1 ovarian
  TGI: 19.4 µM
ACHN renal
  TGI: 16.4 µM
SNB-75 CNS
  TGI: 20.2 µM
NCI/ADR-RES ovarian
  TGI: 14.8 µM
HCT-15 colon
  TGI: 15.4 µM
U251 CNS
  TGI: 14.8 µM
UACC-257 melanoma
  TGI: 25.4 µM
UO-31 renal
  TGI: 15.1 µM
HT29 colon
  TGI: 16.4 µM
TK-10 renal
  TGI: 22.2 µM
SF-295 CNS
  TGI: 31.3 µM
CAKI-1 renal
  TGI: 15.1 µM
NCI-H226 lung
  TGI: 16 µM
NCI-H522 lung
  TGI: 13.9 µM
HS 578T breast
  TGI: 28 µM
COLO 205 colon
  TGI: 16.6 µM
SR leukemia
  TGI: 28.3 µM
SK-MEL-2 melanoma
  TGI: 15.8 µM
MOLT-4 leukemia
  TGI: 18.2 µM
NCI-H23 lung
  TGI: 23.9 µM
MDA-MB-435
  TGI: 20 µM
786-0 renal
  TGI: 16.7 µM
BT-549 breast
  TGI: 24.8 µM
SNB-19 CNS
  TGI: > 50 µM
PC-3 prostate
  TGI: > 50 µM
EKVX NSCLC
  TGI: 32.5 µM
KM12 colon
  TGI: 16.1 µM
HCC-2998 colon
  TGI: 14.9 µM
RPMI-8226 leukemia
  TGI: 36.9 µM
A549 NSCLC
  TGI: > 50 µM
RXF 393 renal
  TGI: 15.2 µM
A498 renal
  TGI: 47.9 µM
SN12C renal
  TGI: 17.3 µM
SK-MEL-28 melanoma
  TGI: 15.2 µM
M14 melanoma
  TGI: 15.8 µM
MDA-MB-231 breast
  TGI: 15.4 µM
HOP-62 NSCLC
  TGI: 18.5 µM
SF-539 CNS
  TGI: 15.8 µM
OVCAR-8 ovarian
  TGI: 16 µM
SK-OV-3 ovarian
  TGI: > 50 µM
OVCAR-5 ovarian
  TGI: 32.1 µM
HOP-92 NSCLC
  TGI: 19.3 µM
OVCAR-3 ovarian
  TGI: 18.1 µM
DU-145 prostate
  TGI: > 50 µM
K-562 leukemia
  TGI: 13.6 µM
HCT-116 colon
  TGI: 15.9 µM
SK-MEL-5 melanoma
  TGI: 15.5 µM
OVCAR-4 ovarian
  TGI: 45.6 µM

## Cn1c(=O)c(Sc2ccccc2F)cc2cnc(NC3CCOCC3)nc21
CCRF-CEM leukemia
  GI50: > 25 µM
  TGI: > 25 µM
SW-620 colon
  GI50: > 25 µM
  TGI: > 25 µM
UACC-62 melanoma
  GI50: > 25 µM
  TGI: > 25 µM
MCF7 breast
  GI50: > 25 µM
  TGI: > 25 µM
SF-268 CNS
  GI50: > 25 µM
  TGI: > 25 µM
MALME-3M melanoma
  GI50: > 25 µM
  TGI: > 25 µM
T-47D breast
  GI50: > 25 µM
  TGI: > 25 µM
IGROV1 ovarian
  GI50: > 25 µM
  TGI: > 25 µM
ACHN renal
  GI50: > 25 µM
  TGI: > 25 µM
SNB-75 CNS
  GI50: > 25 µM
  TGI: > 25 µM
NCI/ADR-RES ovarian
  GI50: > 25 µM
  TGI: > 25 µM
HCT-15 colon
  GI50: > 25 µM
  TGI: > 25 µM
U251 CNS
  GI50: > 25 µM
  TGI: > 25 µM
UACC-257 melanoma
  GI50: > 25 µM
  TGI: > 25 µM
UO-31 renal
  GI50: > 25 µM
  TGI: > 25 µM
HT29 colon
  GI50: > 25 µM
  TGI: > 25 µM
TK-10 renal
  GI50: > 25 µM
  TGI: > 25 µM
SF-295 CNS
  GI50: > 25 µM
  TGI: > 25 µM
CAKI-1 renal
  GI50: > 25 µM
  TGI: > 25 µM
NCI-H226 lung
  GI50: > 25 µM
  TGI: > 25 µM
NCI-H460 lung
  GI50: > 25 µM
  TGI: > 25 µM
NCI-H522 lung
  GI50: > 25 µM
  TGI: > 25 µM
HS 578T breast
  GI50: > 25 µM
  TGI: > 25 µM
COLO 205 colon
  GI50: > 25 µM
  TGI: > 25 µM
SR leukemia
  GI50: > 25 µM
  TGI: > 25 µM
SK-MEL-2 melanoma
  GI50: > 25 µM
  TGI: > 25 µM
MOLT-4 leukemia
  GI50: > 25 µM
  TGI: > 25 µM
NCI-H23 lung
  GI50: > 25 µM
  TGI: > 25 µM
MDA-MB-435
  GI50: > 25 µM
  TGI: > 25 µM
786-0 renal
  GI50: > 25 µM
  TGI: > 25 µM
BT-549 breast
  GI50: > 25 µM
  TGI: > 25 µM
SNB-19 CNS
  GI50: > 25 µM
  TGI: > 25 µM
PC-3 prostate
  GI50: > 25 µM
  TGI: > 25 µM
KM12 colon
  GI50: > 25 µM
  TGI: > 25 µM
HCC-2998 colon
  GI50: > 25 µM
  TGI: > 25 µM
RPMI-8226 leukemia
  GI50: > 25 µM
  TGI: > 25 µM
A549 NSCLC
  GI50: > 25 µM
  TGI: > 25 µM
RXF 393 renal
  GI50: > 25 µM
  TGI: > 25 µM
A498 renal
  GI50: > 25 µM
  TGI: > 25 µM
SN12C renal
  GI50: > 25 µM
  TGI: > 25 µM
SK-MEL-28 melanoma
  GI50: > 25 µM
  TGI: > 25 µM
M14 melanoma
  GI50: > 25 µM
  TGI: > 25 µM
MDA-MB-231 breast
  GI50: > 25 µM
  TGI: > 25 µM
HOP-62 NSCLC
  GI50: > 25 µM
  TGI: > 25 µM
SF-539 CNS
  GI50: > 25 µM
  TGI: > 25 µM
LOX IMVI melanoma
  GI50: > 25 µM
  TGI: > 25 µM
OVCAR-8 ovarian
  GI50: > 25 µM
  TGI: > 25 µM
SK-OV-3 ovarian
  GI50: > 25 µM
  TGI: > 25 µM
HL-60(TB) leukemia
  GI50: > 25 µM
  TGI: > 25 µM
OVCAR-5 ovarian
  GI50: > 25 µM
  TGI: > 25 µM
HOP-92 NSCLC
  GI50: > 25 µM
  TGI: > 25 µM
OVCAR-3 ovarian
  GI50: > 25 µM
  TGI: > 25 µM
DU-145 prostate
  GI50: > 25 µM
  TGI: > 25 µM
K-562 leukemia
  GI50: > 25 µM
  TGI: > 25 µM
HCT-116 colon
  GI50: > 25 µM
  TGI: > 25 µM
SK-MEL-5 melanoma
  GI50: > 25 µM
  TGI: > 25 µM
OVCAR-4 ovarian
  GI50: > 25 µM
  TGI: > 25 µM
